In experiment [1] the test system is Erysiphe graminis. The experiment can be described thus: Erysiphe graminis potting method. The class given is in vivo. The conditions noted are these: for pest or weed control at 100 µg/mL: Blumeria graminis, read-out: Erysiphe graminis control rating. Here is the method:
The fungicidal activity of the control agents and target compounds are determined. The test and investigation method refers to SOP-SC-1116 Erysiphe graminis potting method in disinfectant rolls written by KANGZHUO and GUBAOGEN in “Standard operation specification for testing biological activity of pesticides”.

The target of experiment [2] is T1, succinate dehydrogenase (Sus scrofa, UniProt A5GZW8+D0VWV4+Q007T0).
T1 construct: isolated from porcine hearts; from tissue; host or cells: porcine heart
T1 sequence (Q0QF01 43-664 partner): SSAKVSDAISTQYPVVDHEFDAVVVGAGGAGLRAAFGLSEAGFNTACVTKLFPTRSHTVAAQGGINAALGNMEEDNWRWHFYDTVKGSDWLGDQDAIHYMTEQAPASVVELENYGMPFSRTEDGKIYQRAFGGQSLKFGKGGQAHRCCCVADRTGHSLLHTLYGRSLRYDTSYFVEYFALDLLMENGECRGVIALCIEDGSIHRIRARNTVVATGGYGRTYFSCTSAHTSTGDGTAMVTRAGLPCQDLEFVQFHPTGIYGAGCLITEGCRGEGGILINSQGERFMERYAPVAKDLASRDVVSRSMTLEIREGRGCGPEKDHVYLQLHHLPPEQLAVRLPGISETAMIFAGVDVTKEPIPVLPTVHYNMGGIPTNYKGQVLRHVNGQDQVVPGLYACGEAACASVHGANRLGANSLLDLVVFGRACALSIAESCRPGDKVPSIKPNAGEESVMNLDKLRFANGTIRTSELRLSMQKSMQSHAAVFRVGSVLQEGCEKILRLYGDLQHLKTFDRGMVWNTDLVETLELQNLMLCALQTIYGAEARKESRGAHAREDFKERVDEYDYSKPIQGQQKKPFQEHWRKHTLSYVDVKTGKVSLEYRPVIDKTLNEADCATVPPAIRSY
T1 sequence (Q007T0 29-280): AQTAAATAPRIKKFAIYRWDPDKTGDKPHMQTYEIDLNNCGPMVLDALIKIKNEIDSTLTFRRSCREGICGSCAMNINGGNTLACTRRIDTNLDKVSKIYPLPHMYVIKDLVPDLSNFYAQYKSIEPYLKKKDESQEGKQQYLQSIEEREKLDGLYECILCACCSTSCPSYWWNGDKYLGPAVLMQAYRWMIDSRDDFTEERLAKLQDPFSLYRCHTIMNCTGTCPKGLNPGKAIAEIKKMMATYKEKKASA
T1 sequence (D0VWV4 30-169): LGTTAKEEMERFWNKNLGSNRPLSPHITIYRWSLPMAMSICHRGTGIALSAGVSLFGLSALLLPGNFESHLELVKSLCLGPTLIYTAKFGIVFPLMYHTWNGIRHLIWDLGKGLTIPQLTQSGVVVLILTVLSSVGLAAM
T1 sequence (A5GZW8 57-159 limits assumed): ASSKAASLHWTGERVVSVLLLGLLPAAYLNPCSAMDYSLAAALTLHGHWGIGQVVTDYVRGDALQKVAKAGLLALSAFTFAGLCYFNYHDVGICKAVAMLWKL
The experiment can be described thus: Enzyme activity assay, succinate dehydrogenase (DCIP reduction). The class given is biochemical, porcine. The following applies: read-out: Inhibitors (10 μM, SQR). Put shortly:
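Porcine heart succinate dehydrogenase (2 nM) in 100 mM sodium phosphate pH 7.4, 0.3 mM EDTA, 20 mM sodium succinate and 53 μM DCIP at 23° C with stirring. DCIP reduction followed at 600 nm (ε 21 mM^−1 cm^−1); linear slope minus baseline gives initial rate.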

The test system of experiment [3] is Sphaerotheca fuliginea. The experiment can be described thus: Sphaerotheca fuliginea potting method. The class given is in vivo. The conditions noted are these: 100 mg/L; for pest or weed control at 100 µg/mL: Podosphaera fuliginea, read-out: Sphaerotheca fuliginea control rating. As for the experimental part: The fungicidal activity of the control agents and target compounds are determined. The test and investigation method refers to SOP-SC-1101 sphaerotheca fuliginea potting method in disinfectant rolls written by KANGZHUO and GUBAOGEN in “Standard operation specification for testing biological activity of pesticides”.

Experiment [4] deals with Fusarium fujikura. The experiment can be described thus: Protective activity against rice bakanae disease. Format: in vivo. The conditions noted are these: 5 μg/mL, solvent DMSO. The source says:
(§1) Test of protective activity and therapeutic activity of Compound 1 against rice bakanae disease.
(§2) The test and investigation method refers to SOP-SC-1112 rice bakanae disease potting method in disinfectant rolls written by KANGZHUO and GUBAOGEN in “Standard operation specification for testing biological activity of pesticides”.
(§3) The phenamacril is a mainstream medicament for preventing and treating the rice bakanae disease at present, resistant strains are more and more along with long-time use, and […] strains showing sensitivity and one strain showing resistance to the […] are selected as test strains.
(§4) Four Fusarium fujikura SX18-32, SX18-50, SX18-59 and SX18-63 are selected for testing strains, and the current mainstream commercial bactericide phenamacril is selected as a positive control. Wherein SX18-32, SX18-50 and SX18-59 show sensitivity to phenamacril and SX18-63 show resistance to phenamacril.

Experiment [5] relates to Fusarium fujikura. The experiment can be described thus: Therapeutic activity against rice bakanae disease. Format: in vivo. The conditions noted are these: 5 μg/mL, solvent DMSO.
Excerpt: as §1, §2, §3, §4

Experiment [6] relates to Rhizoctonia cerealis. The experiment can be described thus: Mycelial growth rate method. The class given is cell-based.
The subject of experiment [7] is Alternaria alternata. The experiment can be described thus: Mycelial growth rate method. The class given is cell-based.
Experiment [8] has as its system Fusarium wilt of water melon. The experiment can be described thus: Mycelial growth rate method. The class given is cell-based.
The subject of experiment [9] is Phytophthora infestans. The class given is cell-based.
Experiment [10] deals with Corn big spot. The experiment can be described thus: Mycelial growth rate method. The class given is cell-based.
Experiment [11] relates to Alternaria solani. The experiment can be described thus: Mycelial growth rate method. Format: cell-based.
Experiment [12] deals with Sclerotinia sclerotiorum. The experiment can be described thus: Mycelial growth rate method. Format: cell-based.
The test system of experiment [13] is Sphaerotheca fuliginea. The experiment can be described thus: Field test of sphaerotheca fuliginea. Format: in vivo. The conditions noted are these: 100 mg/L. Here is the method: The test is carried out according to GB/T17980.30-2000 of pesticide field efficacy test guidelines. The survey method is to randomly take four points for each cell and survey all leaves of 2 plants per point. And investigating the sphaerotheca fuliginea incidence before the first application, and investigating the sphaerotheca fuliginea incidence 7 and 14 days after the second application respectively, and calculating the disease index and the controlling effect.

The subject of experiment [14] is Gibberella zeae. Format: cell-based.
Experiment [15] deals with Phytophthora capsici. The experiment can be described thus: Mycelial growth rate method. The class given is cell-based.

Like-named read-outs stand apart in the source and are kept apart here. Some results are limits rather than exact numbers.

Consider `CC(C(=C(Cl)Cl)c1cc(C(F)(F)F)ccc1Cl)N(C(=O)c1c(C(F)F)nn(C)c1F)C1CC1` (stereo not shown) [Compound 209], for which the pest or weed control at 100 µg/mL in [1] (100 mg/L) and in [3] was 80 to 100% throughout. In addition, the inhibition at 10 µM in [2] is greater than 90%.
`CC(C(=C(Cl)Cl)c1cccc(C(F)(F)F)c1Cl)N(C(=O)c1c(C(F)F)nn(C)c1F)C1CC1` (stereo not shown) [Compound 210]: the pest or weed control at 100 µg/mL in experiment [1] (100 mg/L) and in experiment [3] was 80 to 100% throughout. Further, the inhibition at 10 µM in experiment [2] is greater than 90%.
`CC(C(=C(Cl)Cl)c1ccc(C(F)(F)F)cc1Cl)N(C(=O)c1c(C(F)F)nn(C)c1F)C1CC1` (stereo not shown) [Compound 211]: the pest or weed control at 100 µg/mL in [1] (100 mg/L) and in experiment [3] was 80 to 100% throughout. Besides, the inhibition at 10 µM in experiment [2] is greater than 90%.
`CC(C(=C(Cl)Cl)c1ccc(S(C)(=O)=O)cc1Cl)N(C(=O)c1c(C(F)F)nn(C)c1F)C1CC1` (stereo not shown) [Compound 212]: the pest or weed control at 100 µg/mL in experiment [1] (100 mg/L) and in experiment [3] was 80 to 100% in each case. For the same compound, the inhibition at 10 µM in experiment [2] is greater than 90%.
Take `CC(C(=C(Cl)Cl)c1cccc(S(C)(=O)=O)c1)N(C(=O)c1c(C(F)F)nn(C)c1F)C1CC1` (stereo not shown) [Compound 213]: the pest or weed control at 100 µg/mL in [1] (100 mg/L) and in [3] was 80 to 100% each time. For the same compound, the inhibition at 10 µM in experiment [2] is greater than 90%.
As to `CC(C(=C(Cl)Cl)c1ccccc1S(C)(=O)=O)N(C(=O)c1c(C(F)F)nn(C)c1F)C1CC1` (stereo not shown) [Compound 214], the pest or weed control at 100 µg/mL in [1] (100 mg/L) and in experiment [3] was 80 to 100% throughout. Besides, the inhibition at 10 µM in [2] is greater than 90%.
For the compound `CC(C(=C(Cl)Cl)c1cc(S(C)(=O)=O)ccc1Cl)N(C(=O)c1c(C(F)F)nn(C)c1F)C1CC1` (stereo not shown) [Compound 215], the pest or weed control at 100 µg/mL in experiment [1] (100 mg/L) and in experiment [3] was 80 to 100% each time. In addition, the inhibition at 10 µM in experiment [2] was greater than 90%.
For the compound `CCS(=O)(=O)c1ccc(C(=C(Cl)Cl)C(C)N(C(=O)c2c(C(F)F)nn(C)c2F)C2CC2)cc1` (stereo not shown) [Compound 216], the pest or weed control at 100 µg/mL in experiment [1] (100 mg/L) and in [3] was 80 to 100% each time. Also, the inhibition at 10 µM in experiment [2] was greater than 90%.
Regarding `CCS(=O)(=O)c1cccc(C(=C(Cl)Cl)C(C)N(C(=O)c2c(C(F)F)nn(C)c2F)C2CC2)c1` (stereo not shown) [Compound 217], the pest or weed control at 100 µg/mL in experiment [1] (100 mg/L) and in [3] was 80 to 100% each time. In experiment [2], the inhibition at 10 µM was greater than 90%.
On to `CC(C(=C(Cl)Cl)c1ccc(C#CC2CC2)cc1Cl)N(C(=O)c1c(C(F)F)nn(C)c1F)C1CC1` (stereo not shown) [Compound 218], for which the pest or weed control at 100 µg/mL in [1] (100 mg/L) and in experiment [3] was 80 to 100% throughout. In addition, in experiment [2], the inhibition at 10 µM was greater than 90%.
In the case of `CC(C(=C(Cl)Cl)c1ccc(C#CC2CC2)cc1F)N(C(=O)c1c(C(F)F)nn(C)c1F)C1CC1` (stereo not shown) [Compound 219], the pest or weed control at 100 µg/mL in [1] (100 mg/L) and in experiment [3] was 80 to 100% throughout. Moreover, in experiment [2], the inhibition at 10 µM is greater than 90%.
Regarding `CCOC(=O)C(C#N)=C(N)c1ccccc1` [Phenamacril, reference compound], the Protective activity in [4] (strain SX18-32 (S)) worked out at 83.6%; in [4] (strain SX18-59 (S)), 58.8%; in experiment [4] (strain SX18-63 (R)), 19.6%. In addition, the Therapeutic activity in experiment [5] (strain SX18-32 (S)) is 23.8%; in experiment [5] (strain SX18-59 (S)) it was 50.0%; in experiment [5] (strain SX18-59 (S), listed as phenamacril), “about 50%”; in experiment [5] (strain SX18-63 (R)) it was 0%; in [5] (strain SX18-63 (R), listed as phenamacril), “almost no therapeutic activity”.
Take `CON(C(=O)c1cn(C)nc1C(F)F)C(C)Cc1c(Cl)cc(Cl)cc1Cl` (stereo not shown) [Pydiflumetofen, reference compound]: the “Inhibition ratio (%) Rhizoctonia cerealis” value in experiment [6] (1.5625 μg/mL), in experiment [6] (6.25 μg/mL) and in experiment [6] (25 μg/mL) was “A (80% ≤ A ≤ 100%)” in each case. Besides, the “Inhibition ratio (%) Alternaria alternata” value in [7] (1.5625 μg/mL), in experiment [7] (6.25 μg/mL) and in [7] (25 μg/mL) was “A (80% ≤ A ≤ 100%)” each time. Moreover, the “Erysiphe graminis control rating” value in [1] (6.25 mg/L), in [1] (25 mg/L) and in [1] (100 mg/L) was “A (80% ≤ A ≤ 100%)” each time. The “Inhibition ratio (%) Fusarium wilt of water melon” value in experiment [8] (1.5625 μg/mL), in experiment [8] (6.25 μg/mL) and in experiment [8] (25 μg/mL) was “A (80% ≤ A ≤ 100%)” throughout. The “Sphaerotheca fuliginea control rating” value in experiment [3] was “A (80% ≤ A ≤ 100%)”. Moreover, the “Inhibition ratio (%) Phytophthora infestans” value in experiment [9] (1.5625 μg/mL), in [9] (6.25 μg/mL) and in experiment [9] (25 μg/mL) was “A (80% ≤ A ≤ 100%)” each time. For the same compound, the “Inhibition ratio (%) Corn big spot” value in [10] (1.5625 μg/mL), in [10] (6.25 μg/mL) and in experiment [10] (25 μg/mL) was “A (80% ≤ A ≤ 100%)” in each case. In addition, the “Inhibition ratio (%) Alternaria solani” value in [11] (1.5625 μg/mL), in experiment [11] (6.25 μg/mL) and in [11] (25 μg/mL) was “A (80% ≤ A ≤ 100%)” each time. The “Inhibition ratio (%) Sclerotinia sclerotiorum” value was “C (C <70%)” in [12] (1.5625 μg/mL), “A (80% ≤ A ≤ 100%)” in experiment [12] (6.25 μg/mL) and “A (80% ≤ A ≤ 100%)” in [12] (25 μg/mL). Besides, in experiment [13], the Controlling effect % is given as 92%. For the same compound, the “Inhibition ratio (%) Gibberella zeae” value in experiment [14] (1.5625 μg/mL), in experiment [14] (6.25 μg/mL) and in [14] (25 μg/mL) was “A (80% ≤ A ≤ 100%)” throughout. In addition, the “Inhibition ratio (%) Phytophthora capsici” value in [15] (1.5625 μg/mL) is “B (70% ≤ B < 80%)”; in [15] (6.25 μg/mL), “A (80% ≤ A ≤ 100%)”; in experiment [15] (25 μg/mL), “A (80% ≤ A ≤ 100%)”.

For the origin of these results see patent publication US12540118B2, “Dendrene amide compound, bactericide and use thereof” (Jiangsu Flag Chemical Industry Co., Ltd., priority 2020, dated 2026).
